Experimental findings from US20240108578A1, “COMPOSITION IN WHICH ABSORBABILITY OF POORLY ABSORBABLE DRUG IS IMPROVED” (MEDRx Co., Ltd., priority 2021, published 2024) are described below.

The data set in a line: Dissolution of drug in ionic liquid checked under a microscope. Type of data set: physicochemical. The conditions noted are these: 1.4 mg in 0.5 mL ionic liquid formulation, heated at 65° C. for 10 minutes. The procedure:
According to the method of Example 1, the preparations of Examples 1, 4 and 5 comprising Lixisenatide as poorly absorbable drug were prepared. Specifically, the ingredients were mixed in the amounts (molar ratios) shown in the above Table 1 to prepare each ionic liquid formulation. Lixisenatide (1.4 mg) was added into the prepared ionic liquid formulation (0.5 mL) and the mixture was heated and dissolved at 65° C. for 10 minutes to prepare each preparation.
When Lixisenatide was mixed with an ionic liquid and checked the state under a microscope, it was determined that Lixisenatide was dissolved because the crystal of Lixisenatide disappeared by heating.
According to the method of Example 1, the preparations of Preparation Examples 1 to 3 and 22 to 23 comprising Lixisenatide as poorly absorbable drug were prepared. Specifically, the ingredients were mixed in the amounts (molar ratios) shown in Table 2 below to prepare each ionic liquid formulation, Semaglutide (1.4 mg) was added into the prepared ionic liquid formulation (0.5 mL), and the mixture was heated and dissolved at 65° C. for 10 minutes to prepare each preparation.
When Semaglutide was mixed with an ionic liquid and checked the state under a microscope, it was determined that Semaglutide was dissolved because the crystal of Semaglutide disappeared by heating.

On to Lixisenatide, for which the “state of the drug mixed with an ionic liquid under a microscope” value was “dissolved”.

Take Semaglutide: the “state of the drug mixed with an ionic liquid under a microscope” value is “dissolved”.
